Values of other authors, collected in patent publication US11123300B2, “Immediate release tablet of a benzothiophene compound” (Hexal AG, priority 2016, dated 2021).

For O=c1ccc2ccc(OCCCCN3CCN(c4cccc5sccc45)CC3)cc2[nH]1 [brexpiprazole, 7-[4-[4-(1-Benzothiophen-4-yl)piperazin-1-yl]butoxy]quinolin-2(1H)-one], the “solubility of brexpiprazole in water” value is given as 2.27 µg/mL.
